The text below walks through data of US20050118188A1, “Pharmaceutical composition for immunization against AIDS” (Aventis Pasteur, S.A., priority 2000, published 2005).

The test system of the experiment is female BALB/c By J Ico mice. Conditions: mouse, in vivo.

`CC(C)CCC[C@@H](C)[C@H]1CC[C@H]2[C@@H]3CC=C4C[C@@H](OC(=O)NCCN(C)C)CC[C@]4(C)[C@H]3CC[C@]12C.Cl` [DCchol, DC-Chol hydrochloride]: the “Adjuvant effect on local IgA responses (in words)” value was “marked adjuvant effect”, the “Adjuvant effect on serum anti-gp160 antibodies (in words)” value is “good adjuvant” and the “Factor by which IgA normalized specific activities (NSA) were multiplied compared to gp160 alone” value is recorded as 12.
